Measurements from publication PMC6201084 (Antimicrobial Agents and Chemotherapy, 2018).
Values joined by “and” are separate entries in the source; they are usually repeats but may differ in a detail not shown here. Identical values can stand only once.

What was measured:
[1] = biological target: neuraminidase (NA) of influenza B/Perth/136/2015 (MUT-Y273, H273Y NA substitution) (Influenza B virus, UniProt A0A1S5RAG6, H273Y); format: biochemical
[2] = biological target: neuraminidase (NA) of influenza B/Singapore/GP702/2015 (MUT-N197, D197N NA substitution) (Influenza B virus, UniProt A0A1S5RAG6, D197N); format: biochemical

CCC(CC)[C@H](NC(C)=O)[C@@H]1[C@H](O)[C@@H](C(=O)O)C[C@H]1N=C(N)N [Peramivir, peramivir]
Fold difference in IC50 from corresponding wild-type value [1]: 85 fold and 80.9 ± 6.8 (85)^b fold | IC50 ([1]; read-out: IC50 (nM), mean ± SD): 80.9 nM | Fold difference in IC50 from corresponding wild-type value [2]: 3.0 ± 0.7 (3) fold | IC50 ([2]; read-out: IC50 (nM), mean ± SD): 3 nM
